This test in a line: Agonist activity at adrenergic beta2 receptor in guinea pig tracheal rings assessed as myorelaxing activity on carbachol-induced contraction in presence of propranolol.

Molecules are shown by their SMILES. Where “and” joins values, the source holds several entries; their conditions need not be identical. Equal values may be shown once.

By EC50 is commonly meant the concentration giving half of the maximal effect.

With `Cc1c(COc2ccc(CC(C)NCC(O)c3cc(O)cc(O)c3)cc2)no[n+]1[O-]` (stereo unspecified) [5-(1-hydroxy-2-{1-methyl-2-[4-(4-methyl-5-oxy-furazan-3-ylmethoxy)-phenyl]-ethylamino}-ethyl)-benzene-1,3-diol], the EC50 is 55 µM and 54 µM.

The record behind these values is BindingDB's records for doi:10.1021/jm0704595 (University of Turin, 2007).
